Reference: ChEMBL document CHEMBL5331098, “Nanomolar β-glucosidase and β-galactosidase inhibition by enantiomeric α-1-C-alkyl-1,4-dideoxy-1,4-imino-arabinitol derivatives” (Eur J Med Chem, 2023)

What was measured:
Alpha-glucosidase = Alpha-glucosidase (Saccharomyces cerevisiae S288c, UniProt P53341+P38158+P07265); experiment: Inhibition of yeast alpha-glucosidase assessed as reduction of p-nitrophenol release using p-nitrophenyl glycoside as substrate by spectrophotometric analysis; format: protein assay
[1] = Inhibition of rice alpha-glucosidase assessed as reduction of p-nitrophenol release using p-nitrophenyl glycoside as substrate by spectrophotometric analysis; parameters: species or system Oryza sativa
[2] = Inhibition of rat intestinal maltase assessed as D-glucose release using maltose as substrate at pH 6.8 by colorimetric method
[3] = Inhibition of almond beta-glucosidase assessed as reduction of p-nitrophenol release using p-nitrophenyl glycoside as substrate by spectrophotometric analysis; parameters: species or system Prunus dulcis
[4] = Inhibition of bovine liver beta-glucosidase assessed as reduction of p-nitrophenol release using p-nitrophenyl glycoside as substrate by spectrophotometric analysis; parameters: species or system Bos taurus
[5] = molecular target: Alpha-galactosidase (Coffea arabica) (UniProt Q42656); experiment: Inhibition of coffee beans alpha-galactosidase assessed as reduction of p-nitrophenol release using p-nitrophenyl glycoside as substrate at 1000 uM by spectrophotometric analysis relative to control
Sequence of Alpha-galactosidase (Coffea arabica) (Q42656 16-378 limits assumed): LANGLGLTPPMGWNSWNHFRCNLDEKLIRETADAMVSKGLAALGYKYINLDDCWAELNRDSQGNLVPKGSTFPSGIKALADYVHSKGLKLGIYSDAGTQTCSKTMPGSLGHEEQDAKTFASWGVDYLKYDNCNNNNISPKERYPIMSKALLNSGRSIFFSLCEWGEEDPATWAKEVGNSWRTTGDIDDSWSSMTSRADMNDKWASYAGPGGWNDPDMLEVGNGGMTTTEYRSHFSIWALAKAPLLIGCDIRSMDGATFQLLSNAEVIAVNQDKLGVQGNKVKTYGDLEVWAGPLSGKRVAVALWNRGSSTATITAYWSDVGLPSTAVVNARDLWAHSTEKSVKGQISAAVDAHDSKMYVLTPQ

[6] = Inhibition of bovine liver beta-galactosidase assessed as reduction of p-nitrophenol release using p-nitrophenyl glycoside as substrate by spectrophotometric analysis; parameters: species or system Bos taurus
[7] = molecular target: T1, Alpha-mannosidase (Canavalia ensiformis) (UniProt C0HJB3); experiment: Inhibition of jack bean alpha-mannosidase assessed as reduction of p-nitrophenol release using p-nitrophenyl glycoside as substrate at 1000 uM by spectrophotometric analysis relative to control
T1 sequence (whole entry): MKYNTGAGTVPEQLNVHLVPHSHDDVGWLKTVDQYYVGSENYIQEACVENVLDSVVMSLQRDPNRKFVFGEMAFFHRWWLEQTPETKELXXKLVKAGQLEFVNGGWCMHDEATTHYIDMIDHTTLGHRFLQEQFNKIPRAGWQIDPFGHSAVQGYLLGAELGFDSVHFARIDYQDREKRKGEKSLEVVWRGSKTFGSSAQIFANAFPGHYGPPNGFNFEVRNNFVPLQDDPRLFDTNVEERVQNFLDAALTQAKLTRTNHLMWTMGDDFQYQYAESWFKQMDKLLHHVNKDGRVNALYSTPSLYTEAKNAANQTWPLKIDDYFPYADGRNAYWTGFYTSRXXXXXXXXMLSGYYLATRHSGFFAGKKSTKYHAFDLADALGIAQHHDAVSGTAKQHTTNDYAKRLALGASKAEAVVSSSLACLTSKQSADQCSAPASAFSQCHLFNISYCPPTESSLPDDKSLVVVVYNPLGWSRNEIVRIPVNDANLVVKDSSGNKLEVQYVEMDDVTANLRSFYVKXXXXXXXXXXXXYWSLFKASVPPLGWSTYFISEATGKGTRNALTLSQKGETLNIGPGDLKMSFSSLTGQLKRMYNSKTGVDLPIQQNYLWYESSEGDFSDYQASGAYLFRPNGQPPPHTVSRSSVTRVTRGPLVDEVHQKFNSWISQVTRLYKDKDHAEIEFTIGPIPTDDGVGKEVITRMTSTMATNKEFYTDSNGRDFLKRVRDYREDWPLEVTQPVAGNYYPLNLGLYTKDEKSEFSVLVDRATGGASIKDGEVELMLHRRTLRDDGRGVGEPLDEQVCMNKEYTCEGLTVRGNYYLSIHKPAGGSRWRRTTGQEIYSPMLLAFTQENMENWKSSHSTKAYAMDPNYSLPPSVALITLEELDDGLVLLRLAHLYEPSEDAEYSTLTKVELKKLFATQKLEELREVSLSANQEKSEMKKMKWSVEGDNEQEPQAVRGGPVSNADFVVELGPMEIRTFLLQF

[8] = Inhibition of snail beta-mannosidase assessed as reduction of p-nitrophenol release using p-nitrophenyl glycoside as substrate by spectrophotometric analysis; parameters: species or system Helix pomatia
[9] = molecular target: T2, Tissue alpha-L-fucosidase (Bos taurus) (UniProt Q2KIM0); experiment: Inhibition of bovine kidney alpha-L-fucosidase assessed as reduction of p-nitrophenol release using p-nitrophenyl glycoside as substrate at 1000 uM by spectrophotometric analysis relative to control
T2 sequence (whole entry): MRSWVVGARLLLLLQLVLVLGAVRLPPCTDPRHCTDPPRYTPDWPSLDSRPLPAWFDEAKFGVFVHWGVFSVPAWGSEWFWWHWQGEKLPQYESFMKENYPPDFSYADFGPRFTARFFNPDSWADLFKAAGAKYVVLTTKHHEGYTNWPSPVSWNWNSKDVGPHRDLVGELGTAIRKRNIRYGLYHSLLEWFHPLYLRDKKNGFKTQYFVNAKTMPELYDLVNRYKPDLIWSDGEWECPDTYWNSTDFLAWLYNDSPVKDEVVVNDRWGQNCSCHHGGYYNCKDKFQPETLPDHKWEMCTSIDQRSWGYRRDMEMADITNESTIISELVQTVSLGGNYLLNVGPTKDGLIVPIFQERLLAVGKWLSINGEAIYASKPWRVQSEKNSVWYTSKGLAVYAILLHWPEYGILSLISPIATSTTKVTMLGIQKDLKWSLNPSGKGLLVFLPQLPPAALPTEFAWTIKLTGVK

Sus scrofa = species: Sus scrofa; experiment: Inhibition of porcine kidney alpha/alpha-trehalase assessed as reduction of p-nitrophenol release using p-nitrophenyl glycoside as substrate at 1000 uM by spectrophotometric analysis relative to control
[10] = Inhibition of Aspergillus niger amyloglucosidase assessed as reduction of p-nitrophenol release using p-nitrophenyl-glycoside as substrate by spectrophotometric analysis
Penicillium decumbens = experiment: Inhibition of Penicillium decumbens alpha-L-rhamnosidase assessed as reduction of p-nitrophenol release using p-nitrophenyl-glycoside as substrate at 1000 uM by spectrophotometric analysis relative to control
Beta-glucuronidase = Beta-glucuronidase (Escherichia coli (strain K12), UniProt P05804); experiment: Inhibition of Escherichia coli beta-glucuronidase assessed as reduction of p-nitrophenol release using p-nitrophenyl-glycoside as substrate by spectrophotometric analysis
Sequence of Beta-glucuronidase (P05804 whole entry): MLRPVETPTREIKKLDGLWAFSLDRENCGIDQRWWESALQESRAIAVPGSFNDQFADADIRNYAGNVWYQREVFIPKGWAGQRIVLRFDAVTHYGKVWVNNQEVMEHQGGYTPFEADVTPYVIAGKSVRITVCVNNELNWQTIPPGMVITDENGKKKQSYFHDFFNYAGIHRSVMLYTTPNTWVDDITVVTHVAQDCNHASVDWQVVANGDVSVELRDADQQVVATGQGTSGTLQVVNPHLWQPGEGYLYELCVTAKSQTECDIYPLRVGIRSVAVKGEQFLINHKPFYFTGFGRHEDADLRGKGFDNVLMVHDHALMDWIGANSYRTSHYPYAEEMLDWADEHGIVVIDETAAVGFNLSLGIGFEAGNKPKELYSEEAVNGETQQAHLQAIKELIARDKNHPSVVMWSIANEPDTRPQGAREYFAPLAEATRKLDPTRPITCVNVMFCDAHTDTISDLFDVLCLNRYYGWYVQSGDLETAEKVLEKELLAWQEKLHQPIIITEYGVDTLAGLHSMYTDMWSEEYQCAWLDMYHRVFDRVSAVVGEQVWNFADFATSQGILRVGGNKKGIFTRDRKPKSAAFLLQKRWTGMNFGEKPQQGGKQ

Bos taurus [11] = species: Bos taurus; experiment: Inhibition of bovine liver beta-glucuronidase assessed as reduction of p-nitrophenol release using p-nitrophenyl-glycoside as substrate at 1000 uM by spectrophotometric analysis relative to control
[12] = molecular target: Alpha-glucosidase (Saccharomyces cerevisiae S288c) (UniProt P53341+P38158+P07265); experiment: Inhibition of yeast alpha-glucosidase assessed as reduction of p-nitrophenol release using p-nitrophenyl glycoside as substrate at 1000 uM by spectrophotometric analysis relative to control; format: protein assay
Prunus dulcis = experiment: Inhibition of almond beta-glucosidase assessed as reduction of p-nitrophenol release using p-nitrophenyl glycoside as substrate at 1000 uM by spectrophotometric analysis relative to control
Bos taurus [13] = species: Bos taurus; experiment: Inhibition of bovine liver beta-glucosidase assessed as reduction of p-nitrophenol release using p-nitrophenyl glycoside as substrate at 1000 uM by spectrophotometric analysis relative to control
[14] = Inhibition of human lysosomal beta-glucosidase assessed as reduction of p-nitrophenol release using p-nitrophenyl glycoside as substrate by spectrophotometric analysis
Helix pomatia = experiment: Inhibition of snail beta-mannosidase assessed as reduction of p-nitrophenol release using p-nitrophenyl glycoside as substrate at 1000 uM by spectrophotometric analysis relative to control
Aspergillus niger = experiment: Inhibition of Aspergillus niger amyloglucosidase assessed as reduction of p-nitrophenol release using p-nitrophenyl-glycoside as substrate at 1000 uM by spectrophotometric analysis relative to control
[15] = molecular target: Beta-glucuronidase (Escherichia coli (strain K12)) (UniProt P05804); experiment: Inhibition of Escherichia coli beta-glucuronidase assessed as reduction of p-nitrophenol release using p-nitrophenyl-glycoside as substrate at 1000 uM by spectrophotometric analysis relative to control
Sequence of Beta-glucuronidase (Escherichia coli (strain K12)) (P05804 whole entry, looked up): as the sequence (P05804 whole entry) above

[16] = Inhibition of bovine liver beta-glucuronidase assessed as reduction of p-nitrophenol release using p-nitrophenyl-glycoside as substrate by spectrophotometric analysis; parameters: species or system Bos taurus
Rattus norvegicus = species: Rattus norvegicus; experiment: Inhibition of rat intestinal maltase assessed as D-glucose release using maltose as substrate at pH 6.8 at 1000 uM by colorimetric method relative to control
Alpha-galactosidase = Alpha-galactosidase (Coffea arabica, UniProt Q42656); experiment: Inhibition of coffee beans alpha-galactosidase assessed as reduction of p-nitrophenol release using p-nitrophenyl glycoside as substrate by spectrophotometric analysis
Sequence of Alpha-galactosidase (Q42656 whole entry): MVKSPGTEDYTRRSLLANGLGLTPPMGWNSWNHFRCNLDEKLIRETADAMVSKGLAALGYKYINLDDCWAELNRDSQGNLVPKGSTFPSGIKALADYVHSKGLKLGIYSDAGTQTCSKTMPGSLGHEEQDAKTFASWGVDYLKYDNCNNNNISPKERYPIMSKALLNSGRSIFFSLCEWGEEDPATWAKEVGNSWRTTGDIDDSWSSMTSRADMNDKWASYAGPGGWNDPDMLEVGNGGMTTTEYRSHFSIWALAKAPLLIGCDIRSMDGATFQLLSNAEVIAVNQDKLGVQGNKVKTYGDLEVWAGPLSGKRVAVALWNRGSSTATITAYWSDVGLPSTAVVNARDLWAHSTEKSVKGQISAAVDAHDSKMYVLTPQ

Alpha-mannosidase = molecular target: T3, Alpha-mannosidase (Canavalia ensiformis, UniProt C0HJB3); experiment: Inhibition of jack bean alpha-mannosidase assessed as reduction of p-nitrophenol release using p-nitrophenyl glycoside as substrate by spectrophotometric analysis
T3 sequence (C0HJB3 whole entry): T1 sequence (whole entry)

[17] = Inhibition of Penicillium decumbens alpha-L-rhamnosidase assessed as reduction of p-nitrophenol release using p-nitrophenyl-glycoside as substrate by spectrophotometric analysis
[18] = Inhibition of human beta-glucosidase
[19] = molecular target: T4, Tissue alpha-L-fucosidase (Bos taurus, UniProt Q2KIM0); experiment: Inhibition of bovine kidney alpha-L-fucosidase assessed as reduction of p-nitrophenol release using p-nitrophenyl glycoside as substrate by spectrophotometric analysis
T4 sequence (Q2KIM0 whole entry): T2 sequence (whole entry)

Oryza sativa = experiment: Inhibition of rice alpha-glucosidase assessed as reduction of p-nitrophenol release using p-nitrophenyl glycoside as substrate at 1000 uM by spectrophotometric analysis relative to control
Bos taurus [20] = species: Bos taurus; experiment: Inhibition of bovine liver beta-galactosidase assessed as reduction of p-nitrophenol release using p-nitrophenyl glycoside as substrate at 1000 uM by spectrophotometric analysis relative to control

Row | IC50 (Alpha-glucosidase) [µM] | IC50 [1] [µM] | IC50 [2] [µM] | IC50 [3] [µM] | IC50 [4] [µM] | inhibition [5] [%] | IC50 [6] [µM] | inhibition [7] [%] | IC50 [8] [µM] | inhibition [9] [%] | inhibition (Sus scrofa) [%] | IC50 [10] [µM] | inhibition (Penicillium decumbens) [%] | IC50 (Beta-glucuronidase) [µM] | inhibition (Bos taurus [11]) [%] | inhibition [12] [%] | inhibition (Prunus dulcis) [%] | IC50 [14] [µM] | inhibition (Helix pomatia) [%] | inhibition (Aspergillus niger) [%] | Structure (SMILES) | also measured
1 | 21.6 | 119 | 66.6 | 9.8 | 0.12 | 19.6 | 0.03 | 15.1 | 282 | 16.8 | 0.8 | 30 | 35.1 | 3.3 | 46.1 |  |  |  |  |  | O=C1CCCC=C1CCCCCCC[C@H]1N[C@H](CO)[C@@H](O)[C@@H]1O | 
2 |  | 63 | 13 |  |  | 1.6 | 46 | 9.3 |  | 0 | 0 |  | 2.1 |  |  | 37.6 | 14.7 | 25 | 0 | 11.3 | Cc1ccc(CCCCCC[C@@H](O)[C@@H]2N[C@@H](CO)[C@H](O)[C@H]2O)cc1 | inhibition (Bos taurus [13]): 45.4%; inhibition [15]: 24.5%; IC50 [16]: 65 µM
3 |  | 85 |  | 464 | 64 |  | 22 |  |  | 32.7 | 3.5 |  |  | 75 | 12.7 | 21.1 |  | 5.2 | 3.6 | 6 | OC[C@H]1N[C@H](CCCCCCCc2ccccc2)[C@@H](O)[C@H]1O | inhibition (Rattus norvegicus): 43.3%; IC50 (Alpha-galactosidase): 41 µM; IC50 (Alpha-mannosidase): 274 µM; IC50 [17]: 313 µM
4 |  |  |  |  |  |  |  |  |  |  |  |  |  |  |  |  |  |  |  |  | CCCCCCCCCCCCCC1N[C@H](CO)[C@@H](O)[C@@H]1O (stereo not given in full) | IC50 [18]: 0.77 µM
5 | 802 | 11 | 1.9 | 206 | 305 | 12.1 | 16 | 14.7 |  |  | 5.6 |  |  | 133 | 41.5 |  |  |  | 6.7 | 7.2 | Cl.OC[C@@H]1N[C@@H](CCCCCCCc2ccccc2)[C@H](O)[C@H]1O | IC50 [19]: 91 µM; IC50 [17]: 409 µM
6 | 33 | 6.3 | 1.6 | 10 | 0.12 | 5 | 0.021 | 8.4 | 375 | 7.9 | 10.7 | 36 | 43.9 | 97 | 9.8 |  |  |  |  |  | OC[C@H]1N[C@H](CCCCCCCc2ccccc2)[C@@H](O)[C@@H]1O | 
7 | 57 |  |  | 0.064 | 0.004 | 5.5 | 0.002 | 8.7 | 14 |  | 2.3 | 16 | 4.8 | 2.9 | 4.3 |  |  | 0.81 |  |  | CC(C)(C)c1ccc(CCCCCC[C@@H](O)[C@H]2N[C@H](CO)[C@@H](O)[C@@H]2O)cc1.Cl | inhibition (Oryza sativa): 36.6%; inhibition (Rattus norvegicus): 48.7%
8 |  | 21 | 22 |  |  | 1 | 75 | 0 |  | 0 | 0 |  | 4.6 |  | 18.4 | 11.4 | 21.8 | 6.3 | 0.8 | 8.7 | CC(C)(C)c1ccc(CCCCCC[C@@H](O)[C@@H]2N[C@@H](CO)[C@H](O)[C@H]2O)cc1 | inhibition (Bos taurus [13]): 40%; inhibition [15]: 23.5%
9 |  |  | 28 |  |  | 1.3 |  | 0.8 |  | 0 | 0 |  | 0 |  | 0 | 11.4 | 9.6 | 109 | 0.4 | 8.7 | OC[C@@H]1N[C@@H]([C@H](O)CCCCCCc2ccc(Cl)cc2)[C@H](O)[C@H]1O | inhibition (Oryza sativa): 34%; inhibition (Bos taurus [13]): 21%; inhibition (Bos taurus [20]): 37.3%; inhibition [15]: 4.8%
